From patent US20060069132A1, “Azolecarboxamide herbicides” (priority 2004, published 2006)

Key:
barnyardgrass [1] = assay: Test B pre-/postemergence herbicide test; assay type: in vivo, Echinochloa crus-galli; details: for Barnyardgrass plant response rating: postemergence
In short: (§1)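 Flooded paddy rice and barnyardgrass were treated at the 2-leaf stage; upland plantings received compound either on sown seed or on 1- to 4-leaf seedlings. All were kept 13–15 days in a greenhouse and scored visually, 0–100, relative to untreated plants.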

giant foxtail = assay: Test B pre-/postemergence herbicide test; assay type: in vivo, Setaria faberi; details: for Foxtail, Giant plant response rating: postemergence
In short: (§2)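 Visual rating, 0 (no effect) to 100 (complete control), versus untreated controls after 13–15 d in greenhouse. Pre- and postemergence applications (postemergence plants 2–18 cm, 1–4 leaves); flooded paddy arm at 2-leaf stage. Compounds in non-phytotoxic solvent plus surfactant.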

Surinam grass = assay: Test B pre-/postemergence herbicide test; assay type: in vivo, Urochloa decumbens; details: for Surinam Grass plant response rating: scale 0 (no effect) to 100 (complete control)
In short: as §2

barnyardgrass [2] = assay: Test B flooded paddy test; assay type: in vivo, Echinochloa crus-galli; details: 1000 g ai/ha, scale 0 to 100 (0 no effect, 100 complete control)
In short: (§3)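 After treating 2-leaf paddy plants or 2–18 cm postemergence plants (1 to 4 leaves) with formulated chemical, researchers kept them in a greenhouse for 13–15 days. Effects were judged visually versus controls: 0 indicates none, 100 total control.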

barnyardgrass [3] = assay: Test C flooded paddy test; assay type: in vivo, Echinochloa crus-galli
In short: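 Weeds and wheat were sprayed after emergence, at a height of 2 to 18 cm (1–4 leaves), and paddy barnyardgrass was flooded and treated at two leaves. Assessment took place 12–14 days later in the greenhouse on a 0-to-100 visual control scale. A dash means no result was obtained.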

[4] = tested on: smallflower umbrella sedge; assay: Test C flooded paddy test; assay type: in vivo, Cyperus difformis
velvetleaf = assay: Test B pre-/postemergence herbicide test; assay type: in vivo, Abutilon theophrasti; details: for Velvetleaf plant response rating: scale 0 (no effect) to 100 (complete control)
In short: as §2

corn = assay: Test B pre-/postemergence herbicide test; assay type: in vivo, Zea mays; details: for Corn plant response rating: postemergence
In short: as §2

morningglory = assay: Test B pre-/postemergence herbicide test; assay type: in vivo, Ipomoea coccinea; details: for Morningglory plant response rating: scale 0 (no effect) to 100 (complete control)
In short: as §1

rice [5] = assay: Test B flooded paddy test; assay type: in vivo, Oryza sativa; details: 1000 g ai/ha, scale 0 to 100 (0 no effect, 100 complete control)
In short: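 Read-out: visual comparison with controls, scored 0 to 100, where 100 means complete control and 0 no effect. Formulated chemicals were applied postemergence to plants 2–18 cm tall (1- to 4-leaf), or to flooded-paddy plants at the 2-leaf stage, then held 13 to 15 days under glass.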

large crabgrass = assay: Test B pre-/postemergence herbicide test; assay type: in vivo, Digitaria sanguinalis; details: for Crabgrass, Large plant response rating: postemergence
In short: as §2

ducksalad [6] = assay: Test C flooded paddy test; assay type: in vivo, Heteranthera limosa
cocklebur = assay: Test B pre-/postemergence herbicide test; assay type: in vivo, Xanthium strumarium; details: for Cocklebur plant response rating: postemergence
In short: as §1

wild oat = assay: Test B postemergence herbicide test; assay type: in vivo, Avena fatua; details: scale 0 (no effect) to 100 (complete control)
In short: as §3

pigweed = assay: Test B pre-/postemergence herbicide test; assay type: in vivo, Amaranthus retroflexus; details: for Pigweed plant response rating: scale 0 (no effect) to 100 (complete control)
In short: as §2

lambsquarters = assay: Test B pre-/postemergence herbicide test; assay type: in vivo, Chenopodium album; details: scale 0 (no effect) to 100 (complete control)
In short: as §2

[7] = tested on: small flower umbrella sedge; assay: Test B flooded paddy test; assay type: in vivo, Cyperus difformis; details: 1000 g ai/ha, scale 0 to 100 (0 no effect, 100 complete control)
In short: as §3

wheat = assay: Test B postemergence herbicide test; assay type: in vivo, Triticum aestivum; design: key to Wheat plant response rating: 0 = no effect, 100 = complete control
In short: as §3

ducksalad [8] = assay: Test B flooded paddy test; assay type: in vivo, Heteranthera limosa; details: 1000 g ai/ha, scale 0 to 100 (0 no effect, 100 complete control)
In short: as §3

blackgrass = assay: Test B postemergence herbicide test; assay type: in vivo, Alopecurus myosuroides; details: postemergence
In short: as §3

rice [9] = assay: Test C flooded paddy test; assay type: in vivo, Oryza sativa
In short: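 Postemergence sprays applied to plants 2 to 18 cm tall (1- to 4-leaf stage); paddy species grown to 2-leaf stage under flooding. After 12 to 14 days in greenhouse, visual rating versus untreated controls on 0–100 scale (0 no effect, 100 complete control).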

[10] = 125 g ai/ha, 0 is no effect, 100 is complete control, preemergence
[11] = 125 g ai/ha, visual rating, scale 0 (no effect) to 100 (complete control)
[12] = 500 g ai/ha, scale 0 to 100, 0 is no effect, 100 is complete control
[13] = 125 g ai/ha, visual rating, postemergence
[14] = 125 g ai/ha, scale 0 to 100 (0 no effect, 100 complete control)
[15] = 250 g ai/ha, scale of 0 to 100, 0 is no effect, 100 is complete control
[16] = 500 g ai/ha, visual rating after 12 to 14 days, scale 0 to 100 (0 no effect, 100 complete control)

Compound: CCc1nn(C(C)(C)CC)nc1C(=O)Nc1cc(C(=O)N(C)C)ccc1F [Compound 368]
- Plant response rating (0 to 100 scale), Barnyardgrass (barnyardgrass [1]; [10]): 40
- Barnyardgrass plant response rating (barnyardgrass [1]; [11]): 0
- Barnyardgrass plant response rating (barnyardgrass [1]; [12]): 10
- Plant response rating (0 to 100 scale), Foxtail, Giant (giant foxtail; [10]): 20
- Foxtail, Giant plant response rating (giant foxtail; [11]): 0
- Foxtail, Giant plant response rating (giant foxtail; [12]): 10
- Plant response rating (0 to 100 scale), Surinam Grass (Surinam grass; [10]): 10
- Surinam Grass plant response rating (Surinam grass; [13]): 0
- Surinam Grass plant response rating (Surinam grass; Postemergence, 500 g ai/ha): 0
- Barnyardgrass plant response rating (barnyardgrass [2]): 60
- Barnyardgrass plant response rating (barnyardgrass [3]; 62 g ai/ha, scale 0 to 100 (0 no effect, 100 complete control)): 0
- Barnyardgrass plant response rating (barnyardgrass [3]; [14]): 0
- Barnyardgrass plant response rating (barnyardgrass [3]; [15]): 0
- Plant response rating, Barnyardgrass (barnyardgrass [3]; [16]): 30
- Sedge, Umbrella plant response rating ([4]; 62 g ai/ha, scale 0 to 100): 20
- Sedge, Umbrella plant response rating [4, 14]: 75
- Sedge, Umbrella plant response rating [4, 15]: 75
- Plant response rating (0 to 100 scale), Velvetleaf (velvetleaf; [10]): 0
- Velvetleaf plant response rating (velvetleaf; [13]): 10
- Velvetleaf plant response rating (velvetleaf; Postemergence, 500 g ai/ha): 20
- Plant response rating (0 to 100 scale), Corn (corn; [10]): 0
- Corn plant response rating (corn; [11]): 0
- Corn plant response rating (corn; [12]): 10
- Plant response rating (0 to 100 scale), Morningglory (morningglory; [10]): 0
- Morningglory plant response rating (morningglory; [13]): 0
- Morningglory plant response rating (morningglory; Postemergence, 500 g ai/ha): 30
- Rice plant response rating (rice [5]): 50
- Plant response rating (0 to 100 scale), Crabgrass, Large (large crabgrass; [10]): 10
- Crabgrass, Large plant response rating (large crabgrass; [11]): 10
- Crabgrass, Large plant response rating (large crabgrass; [12]): 10
- Ducksalad plant response rating (ducksalad [6]; 62 g ai/ha, scale 0 to 100): 0
- Ducksalad plant response rating (ducksalad [6]; [14]): 80
- Ducksalad plant response rating (ducksalad [6]; [15]): 90
- Plant response rating (0 to 100 scale), Cocklebur (cocklebur; [10]): 0
- Cocklebur plant response rating (cocklebur; [11]): 20
- Cocklebur plant response rating (cocklebur; [12]): 30
- Oat, Wild plant response rating (wild oat; [13]): 0
- Oat, Wild plant response rating (wild oat; Postemergence, 500 g ai/ha): 0
- Plant response rating (0 to 100 scale), Pigweed (pigweed; [10]): 30
- Pigweed plant response rating (pigweed; [13]): 10
- Pigweed plant response rating (pigweed; Postemergence, 500 g ai/ha): 50
- Lambsquarters plant response rating (lambsquarters; [13]): 50
- Lambsquarters plant response rating (lambsquarters; Postemergence, 500 g ai/ha): 60
- Sedge, Umbrella plant response rating [7]: 80
- Wheat plant response rating (wheat; 125 g ai/ha, visual rating, scale 0 (no effect) to 100 (complete control), postemergence): 0
- Wheat plant response rating (wheat; 500 g ai/ha, scale 0 to 100, 0 no effect, 100 complete control, preemergence): 10
- Wheat plant response rating (wheat; Postemergence, 500 g ai/ha, scale 0 (no effect) to 100 (complete control)): 0
- Ducksalad plant response rating (ducksalad [8]): 90
- Blackgrass plant response rating (blackgrass; [11]): 0
- Blackgrass plant response rating (blackgrass; [12]): 10
- Rice plant response rating (rice [9]; 62 g ai/ha, scale 0 to 100): 20
- Rice plant response rating (rice [9]; [14]): 45
- Rice plant response rating (rice [9]; [15]): 60
- Plant response rating, Rice (rice [9]; [16]): 70
